Test results as given in patent publication US10421761B2, “Compounds for kinase modulation, and indications therefor” (Plexxikon Inc., priority 2013, dated 2019).

Tested on: B9 cells
Details: B9 cells

Structure (SMILES): CCCS(=O)(=O)Nc1ccc(F)c(C(=O)c2c[nH]c3ncc(-c4ccc(Cl)cc4)cc23)c1F [vemurafenib]
- probe 1455104_at response, Mxd1 (MAX dimerization protein 1) (Repl. 1): 2.60
- probe 1455241_at response, BC037703 (cDNA sequence BC037703) (Repl. 1): 0.44
- probe 1455299_at response, Vgll3 (vestigial like 3 (Drosophila)) (Repl. 1): 0.50
- probe 1455981_at response, Gm11263 /// Gm12242 /// Gm13654 /// Gm14138 /// Gm16406 /// Gm4796 /// Gm6476 /// Gm9143 /// LOC100043734 /// LOC236932 /// LOC623245 /// LOC639593 /// Rps6 (Repl. 1): 0.41
- probe 1456150_at response, Jhdm1d (jumonji C domain-containing histone demethylase 1 homolog D (S. cerevisiae)) (Repl. 1): 1.99
- probe 1456174_x_at response, Ndrg1 (N-myc downstream regulated gene 1) (Repl. 1): 1.92
- probe 1456248_at response, Lce3f /// LOC630971 (late cornified envelope 3F /// hypothetical protein LOC630971) (Repl. 1): 2.26
- probe 1456284_at response, Tmem171 (transmembrane protein 171) (Repl. 1): 2.10
- probe 1456321_at response, Nipal1 (NIPA-like domain containing 1) (Repl. 1): 3.42
- probe 1456725_x_at response, Ezr (ezrin) (Repl. 1): 0.48
- probe 1456874_at response, Flrt2 (fibronectin leucine rich transmembrane protein 2) (Repl. 1): 0.52
- probe 1457042_at response, AI256396 (EST AI256396) (Repl. 1): 0.48
- probe 1457568_at response, Hnrnpd (heterogeneous nuclear ribonucleoprotein D) (Repl. 1): 0.44
- probe 1457666_s_at response, Ifi202b (interferon activated gene 202B) (Repl. 1): 3.60
- probe 1460220_a_at response, Csf1 (colony stimulating factor 1 (macrophage)) (Repl. 1): 0.40
- probe 1460302_at response, Thbs1 (thrombospondin 1) (Repl. 1): 0.49
- probe 1460472_at response, Cdk3 (cyclin-dependent kinase 3) (Repl. 1): 1.91
- probe 1460521_a_at response, Obfc2a (oligonucleotide/oligosaccharide-binding fold containing 2A) (Repl. 1): 3.03
- probe 1460695_a_at response, 2010111I01Rik (RIKEN cDNA 2010111I01 gene) (Repl. 1): 0.51
- probe 1415828_a_at response, Serp1 (stress-associated endoplasmic reticulum protein 1) (Repl. 2): 1.88
- probe 1415936_at response, Bcar3 (breast cancer anti-estrogen resistance 3) (Repl. 2): 2.16
- probe 1416129_at response, Errfi1 (ERBB receptor feedback inhibitor 1) (Repl. 2): 3.11
- probe 1416246_a_at response, Coro1a (coronin, actin binding protein 1A) (Repl. 2): 2.19
- probe 1416325_at response, Crisp 1 (cysteine-rich secretory protein 1) (Repl. 2): 4.39
- probe 1416401_at response, Cd82 (CD82 antigen) (Repl. 2): 2.64
- probe 1416488_at response, Ccng2 (cyclin G2) (Repl. 2): 2.31
- probe 1416527_at response, Rab32 (RAB32, member RAS oncogene family) (Repl. 2): 0.48
- probe 1417065_at response, Egr1 (early growth response 1) (Repl. 2): 4.50
- probe 1417130_s_at response, Angptl4 (angiopoietin-like 4) (Repl. 2): 2.79
- probe 1417328_at response, Ercc1 (excision repair cross-complementing rodent repair deficiency, complementation group 1) (Repl. 2): 2.01
- probe 1417488_at response, Fosl1 (fos-like antigen 1) (Repl. 2): 2.05
- probe 1417494_a_at response, Cp (ceruloplasmin) (Repl. 2): 0.43
- probe 1417495_x_at response, Cp (ceruloplasmin) (Repl. 2): 0.51
- probe 1417533_a_at response, Itgb5 (integrin beta 5) (Repl. 2): 0.51
- probe 1417625_s_at response, Cxcr7 (chemokine (C-X-C motif) receptor 7) (Repl. 2): 2.03
- probe 1417677_at response, Opn3 (opsin 3) (Repl. 2): 2.39
- probe 1417812_a_at response, Lamb3 (laminin, beta 3) (Repl. 2): 2.38
- probe 1417837_at response, Phlda2 (pleckstrin homology-like domain, family A, member 2) (Repl. 2): 2.11
- probe 1417902_at response, Slc19a2 (solute carrier family 19 (thiamine transporter), member 2) (Repl. 2): 2.07
- probe 1417962_s_at response, Ghr (growth hormone receptor) (Repl. 2): 2.14
- probe 1418349_at response, Hbegf (heparin-binding EGF-like growth factor) (Repl. 2): 2.70
- probe 1418350_at response, Hbegf (heparin-binding EGF-like growth factor) (Repl. 2): 2.46
- probe 1418538_at response, Kdelr3 (KDEL (Lys-Asp-Glu-Leu) endoplasmic reticulum protein retention receptor 3) (Repl. 2): 2.02
- probe 1418539_a_at response, Ptpre (protein tyrosine phosphatase, receptor type, E) (Repl. 2): 1.89
- probe 1419149_at response, Serpine1 (serine (or cysteine) peptidase inhibitor, clade E, member 1) (Repl. 2): 1.99
- probe 1419188_s_at response, Ccl27a /// Gm13306 (chemokine (C-C motif) ligand 27A /// predicted gene 13306) (Repl. 2): 2.36
- probe 1419317_x_at response, Lce3c (late cornified envelope 3C) (Repl. 2): 2.58
- probe 1419322_at response, Fgd6 (FYVE, RhoGEF and PH domain containing 6) (Repl. 2): 2.45
- probe 1419529_at response, Il23a (interleukin 23, alpha subunit p19) (Repl. 2): 2.53
- probe 1419671_a_at response, Il17rc (interleukin 17 receptor C) (Repl. 2): 0.45
- probe 1419722_at response, Klk8 (kallikrein related-peptidase 8) (Repl. 2): 1.94
- probe 1419816_s_at response, Errfi1 (ERBB receptor feedback inhibitor 1) (Repl. 2): 3.39
- probe 1420352_at response, Prss22 (protease, serine, 22) (Repl. 2): 3.13
- probe 1420380_at response, Cc12 (chemokine (C-C motif) ligand 2) (Repl. 2): 0.41
- probe 1420407_at response, Ltb4r1 (leukotriene B4 receptor 1) (Repl. 2): 2.24
- probe 1420450_at response, Mmp10 (matrix metallopeptidase 10) (Repl. 2): 3.93
- probe 1420537_at response, Kctd4 (potassium channel tetramerisation domain containing 4) (Repl. 2): 2.58
- probe 1420760_s_at response, Ndrg1 (N-myc downstream regulated gene 1) (Repl. 2): 2.04
- probe 1420913_at response, Slco2a1 (solute carrier organic anion transporter family, member 2a1) (Repl. 2): 1.96
- probe 1420955_at response, Vsnl1 (visinin-like 1) (Repl. 2): 0.47
- probe 1421134_at response, Areg (amphiregulin) (Repl. 2): 4.16
- probe 1421269_at response, Ugcg (UDP-glucose ceramide glucosyltransferase) (Repl. 2): 2.16
- probe 1421279_at response, Lamc2 (laminin, gamma 2) (Repl. 2): 2.11
- probe 1421403_at response, Pi15 (peptidase inhibitor 15) (Repl. 2): 1.96
- probe 1421551_s_at response, Ifi202b (interferon activated gene 202B) (Repl. 2): 3.42
- probe 1421668_x_at response, Speer3 (spermatogenesis associated glutamate (E)-rich protein 3) (Repl. 2): 2.60
- probe 1421679_a_at response, Cdkn1a (cyclin-dependent kinase inhibitor 1A (P21)) (Repl. 2): 4.13
- probe 1421888_x_at response, Aplp2 (amyloid beta (A4) precursor-like protein 2) (Repl. 2): 0.63
- probe 1421943_at response, Tgfa (transforming growth factor alpha) (Repl. 2): 1.92
- probe 1422028_a_at response, Ets1 (E26 avian leukemia oncogene 1, 5′ domain) (Repl. 2): 1.91
- probe 1422101_at response, Tnfrsf23 (tumor necrosis factor receptor superfamily, member 23) (Repl. 2): 1.93
- probe 1422138_at response, Plau (plasminogen activator, urokinase) (Repl. 2): 2.19
- probe 1422139_at response, Plau (plasminogen activator, urokinase) (Repl. 2): 2.82
- probe 1422222_at response, Ivl (involucrin) (Repl. 2): 2.27
- probe 1422240_s_at response, Sprr2h (small proline-rich protein 2H) (Repl. 2): 1.98
- probe 1422273_at response, Mmp1b (matrix metallopeptidase 1b (interstitial collagenase)) (Repl. 2): 3.17
- probe 1422324_a_at response, Pthlh (parathyroid hormone-like peptide) (Repl. 2): 2.28
- probe 1422537_a_at response, Id2 (inhibitor of DNA binding 2) (Repl. 2): 0.49
- probe 1422771_at response, Smad6 (MAD homolog 6 (Drosophila)) (Repl. 2): 0.47
- probe 1422924_at response, Tnfsf9 (tumor necrosis factor (ligand) superfamily, member 9) (Repl. 2): 1.94
- probe 1423017_a_at response, Il1rn (interleukin 1 receptor antagonist) (Repl. 2): 2.03
- probe 1423543_at response, Swap70 (SWA-70 protein) (Repl. 2): 1.95
- probe 1423597_at response, Atp8a1 (ATPase, aminophospholipid transporter (APLT), class I, type 8A, member 1) (Repl. 2): 1.88
- probe 1423635_at response, Bmp2 (bone morphogenetic protein 2) (Repl. 2): 2.23
- probe 1423690_s_at response, Gpsm1 (G-protein signalling modulator 1 (AGS3-like, C. elegans)) (Repl. 2): 3.20
- probe 1423933_a_at response, 1600029D21Rik (RIKEN cDNA 1600029D21 gene) (Repl. 2): 2.01
- probe 1424022_at response, Osgin1 (oxidative stress induced growth inhibitor 1) (Repl. 2): 1.92
- probe 1424090_at response, Sdcbp2 (syndecan binding protein (syntenin) 2) (Repl. 2): 4.46
- probe 1424306_at response, Elovl4 (elongation of very long chain fatty acids (FEN1/Elo2, SUR4/Elo3, yeast)-like 4) (Repl. 2): 2.35
- probe 1424383_at response, Tmem51 (transmembrane protein 51) (Repl. 2): 2.69
- probe 1424471_at response, Rapgef3 (Rap guanine nucleotide exchange factor (GEF) 3) (Repl. 2): 1.89
- probe 1424638_at response, Cdkn1a (cyclin-dependent kinase inhibitor 1A (P21)) (Repl. 2): 2.67
- probe 1424783_a_at response, Ugt1a1 /// Ugt1a10 /// Ugt1a2 /// Ugt1a5 /// Ugt1a6a /// Ugt1a6b /// Ugt1aTc /// Ugt1a9 (UDP glucuronosyltransferase 1 family) (Repl. 2): 0.43
- probe 1425452_s_at response, Fam84a (family with sequence similarity 84, member A) (Repl. 2): 2.53
- probe 1425660_at response, Btbd3 (BTB (POZ) domain containing 3) (Repl. 2): 1.92
- probe 1426037_a_at response, Rgs16 (regulator of G-protein signaling 16) (Repl. 2): 2.93
- probe 1426181_a_at response, I124 (interleukin 24) (Repl. 2): 4.76
- probe 1426260_a_at response, Ugt1a1 /// Ugt1a10 /// Ugt1a2 /// Ugt1a5 /// Ugt1a6a /// Ugt1a6b /// Ugt1aTc /// Ugt1a9 (UDP glucuronosyltransferase 1 family) (Repl. 2): 0.45
- probe 1426300_at response, Alcam (activated leukocyte cell adhesion molecule) (Repl. 2): 2.44
- probe 1426306_a_at response, LOC100046560 /// Maged2 (similar to melanoma antigen family D, 2 /// melanoma antigen, family D, 2) (Repl. 2): 1.87
- probe 1426708_at response, Antxr2 (anthrax toxin receptor 2) (Repl. 2): 2.15
- probe 1426806_at response, Obfc2a (oligonucleotide/oligosaccharide-binding fold containing 2A) (Repl. 2): 2.02
- probe 1426848_at response, LOC100047481 /// Sec24b (similar to SEC24 related gene family, member B (S. cerevisiae) /// Sec24 related gene family, member B (S. cerevisiae)) (Repl. 2): 0.75
- probe 1426972_at response, Sec24d (Sec24 related gene family, member D (S. cerevisiae)) (Repl. 2): 2.26
- probe 1427278_at response, Clip4 (CAP-GLY domain containing linker protein family, member 4) (Repl. 2): 2.03
- probe 1427364_a_at response, Odc1 (ornithine decarboxylase, structural 1) (Repl. 2): 2.62
- probe 1427512_a_at response, Lama3 (laminin, alpha 3) (Repl. 2): 2.47
- probe 1427527_a_at response, Pthlh (parathyroid hormone-like peptide) (Repl. 2): 2.37
- probe 1427885_at response, Pold4 (polymerase (DNA-directed), delta 4) (Repl. 2): 2.27
- probe 1428114_at response, Slc14a1 (solute carrier family 14 (urea transporter), member 1) (Repl. 2): 2.47
- probe 1428195_at response, Ahcyl2 (S-adenosylhomocysteine hydrolase-like 2) (Repl. 2): 2.06
- probe 1428228_at response, Pgm3 (phosphoglucomutase 3) (Repl. 2): 2.13
- probe 1428419_at response, 5430411K18Rik (RIKEN cDNA 5430411K18 gene) (Repl. 2): 2.28
- probe 1428851_at response, 1300014I06Rik (RIKEN cDNA 1300014I06 gene) (Repl. 2): 2.01
- probe 1429700_at response, 3110040M04Rik (RIKEN cDNA 3110040M04 gene) (Repl. 2): 2.47
- probe 1429844_at response, 2310043J07Rik (RIKEN cDNA 2310043J07 gene) (Repl. 2): 0.53
- probe 1430010_at response, Ncapd2 (non-SMC condensin I complex, subunit D2) (Repl. 2): 0.49
- probe 1430567_at response, Spink5 (serine peptidase inhibitor, Kazal type 5) (Repl. 2): 0.53
